Data set [1] in a line: Fate of ⁵⁹Fe tracer incubated with chelator and injected into normal rats (radioiron distribution and excretion). In kind it is in vivo. As to conditions: for Radioiron Distribution in % Feces / Radioiron Distribution in % Total excretion / Radioiron Distribution in % Urine / Radioiron Distribution in % Blood / Radioiron Distribution in % Liver / Radioiron Distribution in % Spleen: 10 mg chelator with ⁵⁹Fe, subcutaneous, normal rats; for Radioiron Distribution in % Feces / Radioiron Distribution in % Total excretion / Radioiron Distribution in % Urine: cumulative within 4 days; for Radioiron Distribution in % Blood / Radioiron Distribution in % Liver / Radioiron Distribution in % Spleen: within 4 days; for TOTAL EXCRETION OF RADIO-IRON IN RATS %: as in Table 1. Here is the method:
Table 1 describes the fate of ⁵⁹Fe tracer reincubated […] with 10 mg of some of the above iron chelators and then injected subcutaneously to groups of 4 normal rats. Numbers represent mean cumulative radioiron excretion within 4 days of injection. For comparison, spontaneous excretion of radioiron and the excretion of desferrioxamine (DF) bound radioiron are also given. […]
Spleen and kidney were counted as whole organs.
The excretion of radioiron following ⁵⁹Fe labelling was measured in animals confined to solitary metabolic cages with stainless steel grid bottoms, and stool and urine were collected separately.

For data set [2] the following is noted: background statement, "probably"; cited from earlier work.
In data set [3] the test system is non-resistant strain of P. falciparum. As to conditions: molar concentration 1.5 x 10⁻⁵, according to Raventos-Suarez; cited from earlier work.
The conditions of data set [4]: stated as known; cited from earlier work.
Data set [5] in a line: Mobilization of iron from hepatic parenchymal stores in hypertransfused rats labelled with ⁵⁹Fe-ferritin. In kind it is in vivo. The conditions noted are these: for ORGAN DISTRIBUTION AND EXCRETION OF ⁵⁹Fe-FERRITIN (%) BLOOD / ORGAN DISTRIBUTION AND EXCRETION OF ⁵⁹Fe-FERRITIN (%) LIVER / ORGAN DISTRIBUTION AND EXCRETION OF ⁵⁹Fe-FERRITIN (%) STOOL / ORGAN DISTRIBUTION AND EXCRETION OF ⁵⁹Fe-FERRITIN (%) TOTAL EXCRETION / ORGAN DISTRIBUTION AND EXCRETION OF ⁵⁹Fe-FERRITIN (%) URINE: after 4 days, Desferral i.p., route not printed for Ex. 4 and Ex. 5, mean ± SD. Here is the method: In each case, 40 mg of each compound was administered per animal in a single subcutaneous injection.
In vivo studies of chelating efficiency were performed in two models: (a) normal rats injected i.p. with 10 mg of either desferrioxamine B (DF), PIH of the prior art, PPH of Example 4 or PPHE from Example 5 labelled in vitro with ⁵⁹Fe; and (b) hypertransfused rats receiving twice 4 ml/100gm packed RBC intravenously 5 and 3 days prior to study (hematocrit 68%) and labelled with ⁵⁹Fe-ferritin injected i.v. 24h prior to iron chelating therapy as described previously. Drugs to be tested in the ⁵⁹Fe-ferritin model were given either by i.p. injection or by gastric tube at a dose of 40 mg per animal. Radioiron excretion and organ distribution were determined after 4 days
The radioactivity of spleen, weighed portions of the liver, and 1 ml samples of blood were determined in an automatic well type scintillation counter (Packard Autogamma Model 5360 Scintillation spectrometer). Spleen and kidney were counted as whole organs.
Whole body counts were performed in a small animal counter (Packard Model 446 Armac) scintillation detector. The excretion of radioiron following ⁵⁹Fe labelling was measured in animals confined to solitary metabolic cages with stainless steel grid bottoms, and stool and urine were collected separately.

The conditions of data set [6]: rats.
Data set [7] is described as follows: Iron chelation in H₂O (spectrophotometric, apparent K), ferrous ions. It is filed as physicochemical.
In data set [8] the test system is chloroquine-resistant strain of P. falciparum (FCR-3). The conditions noted are these: molar concentration 2 x 10⁻⁵; cultured 3 days. Here is the method:
Cultures of a chloroquine-resistant strain of P. falciparum (FCR-3), cultivated in human erythrocytes (a technique widely used at the Kuvin Centre, Hebrew University Hadassah Medical School), were suspended in solutions containing chelators and then cultured for 3 days. Growth of parasites was determined by either slide counts or by incorporation of ³H-hypoxanthine. The parasite growth was monitored by microscopic slide counts. […]

[9] abbreviates: 40 mg i.p., hypertransfused rats, 4 days.
Setting [10] is: hypertransfused rats, 40 mg per animal.
Where [11] appears, read: hypertransfused rats, 40 mg per animal, listed as desferral.
Where [12] appears, read: hypertransfused rats, 40 mg per animal, single subcutaneous injection.
The mark [13] stands for this setting: oral administration of 40 mg, hypertransfused rats.

With `CC(=O)N(O)CCCCCNC(=O)CCC(=O)N(O)CCCCCNC(=O)CCC(=O)N(O)CCCCCN` [Desferral, desferrioxamine, reference compound], in data set [1], the “Radioiron Distribution in % Feces” value came to 13.5±0.7%, the “Radioiron Distribution in % Total excretion” value turned out to be 85.4±4.3%, the “Radioiron Distribution in % Urine” value is 71.9±3.6% and the “Radioiron Distribution in % Blood” value is recorded as 8.7±1.6%. In data set [1], the “Radioiron Distribution in % Liver” value is recorded as 2.7±0.3%, the “Radioiron Distribution in % Spleen” value was found to be 0.14±0.03% and the “TOTAL EXCRETION OF RADIO-IRON IN RATS %” value was 85.4± 4.3%. In addition, the “half life in vivo” value in data set [2] is listed as “less than 1 hr”. In addition, in data set [3], the “INHIBITION OF GROWTH OF P. falciparum % INHIBITION” value is listed as “complete after 96 Hrs. ^(*)”. In addition, the oral efficiency entry in data set [4] is on record as “no oral efficiency”. Besides, the “reduction in hepatocellular (hepatic) radioactivity” value in data set [5] (setting [9]) came out at 20%. Further, in data set [5] (setting [10]), the “ORGAN DISTRIBUTION AND EXCRETION OF ⁵⁹Fe-FERRITIN (%) BLOOD” value turned out to be 4.5±0.4%, the “ORGAN DISTRIBUTION AND EXCRETION OF ⁵⁹Fe-FERRITIN (%) LIVER” value is recorded as 70.4± 6.0%, the “ORGAN DISTRIBUTION AND EXCRETION OF ⁵⁹Fe-FERRITIN (%) STOOL” value was 23.3±0.1% and the “ORGAN DISTRIBUTION AND EXCRETION OF ⁵⁹Fe-FERRITIN (%) TOTAL EXCRETION” value was 24.5±0.1%. In addition, the “ORGAN DISTRIBUTION AND EXCRETION OF ⁵⁹Fe-FERRITIN (%) URINE” value in data set [5] (hypertransfused rats, 40 mg per animal, listed as DESFERRAL) is 1.2±0%. Moreover, in data set [5] (setting [11]), the “ORGAN DISTRIBUTION AND EXCRETION OF ⁵⁹Fe-FERRITIN (%) STOOL” value is 23% and the “ORGAN DISTRIBUTION AND EXCRETION OF ⁵⁹Fe-FERRITIN (%) URINE” value was “negligible”. In addition, in data set [5] (setting [12]), the “Ferritin-⁵⁹Fe distribution in % Blood” value came out at 4.5±0.4%, the “Ferritin-⁵⁹Fe distribution in % Feces” value was found to be 23.3±0.1%, the “Ferritin-⁵⁹Fe distribution in % Liver” value is reported as 70.4±6.0% and the “Ferritin-⁵⁹Fe distribution in % Residual” value is reported as 0%. In addition, in data set [5] (setting [12]), the “Ferritin-⁵⁹Fe distribution in % Spleen” value came out at 0.6±0.1% and the “Ferritin-⁵⁹Fe distribution in % Urine” value amounted to 1.2±0%. This molecule also showed a total radioiron excretion in data set [5] (oral, 40 mg drug/animal by gastric tube, hypertransfused ⁵⁹Fe-ferritin labelled rats) of 6.0%.
With `CCOC(=O)[n+]1cc(CO)c(C=NNc2ncccn2)c(O)c1C` [Ex. 5, 1-(N-ethoxycarbonylpyridoxylidenium]-2-[2′-pyrimidyl] hydrazine], the tolerance result in data set [6] (100 mg/kg/d by oral or parenteral administration) was “well tolerated”. Also, the “biochemical tests of hepatic and renal function, complete blood counts, hepatic and renal histology” value in data set [6] (after 3 months of continuous treatment) is listed as “no indications of toxicity”. Moreover, in data set [1], the “Radioiron Distribution in % Feces” value is 67.3±2.4%, the “Radioiron Distribution in % Total excretion” value is listed as 96.2±3.4%, the “Radioiron Distribution in % Urine” value was 28.9±1.0% and the “Radioiron Distribution in % Blood” value was 4.2±0.2%. Further, in data set [1], the “Radioiron Distribution in % Liver” value is 2.9±0.2%, the “Radioiron Distribution in % Spleen” value was 0.06±0.03% and the “TOTAL EXCRETION OF RADIO-IRON IN RATS %” value worked out at 96.2± 3.4%. Besides, the “effectiveness in the chelation test relative to prior art PIH” value in data set [7] (compared with PIH) was “about sixty times more effective”. In addition, the “higher affinity for ferrous than for ferric ions” value in data set [7] (ferrous versus ferric) is approximately 30 fold. For the same molecule, the “INHIBITION OF GROWTH OF DRUG-RESISTANT STRAIN OF P. falciparum % INHIBITION” value in data set [8] is given as 90.3%. Moreover, in data set [5] (setting [9]), the “excretion of the radioiron label in the stool” value is 72% and the “reduction in hepatocellular (hepatic) radioactivity” value came out at 69%. Besides, in data set [5] (setting [10]), the “ORGAN DISTRIBUTION AND EXCRETION OF ⁵⁹Fe-FERRITIN (%) BLOOD” value came out at 3.1±0.6%, the “ORGAN DISTRIBUTION AND EXCRETION OF ⁵⁹Fe-FERRITIN (%) LIVER” value was 63.8± 8.7%, the “ORGAN DISTRIBUTION AND EXCRETION OF ⁵⁹Fe-FERRITIN (%) STOOL” value turned out to be 27.6±1.3% and the “ORGAN DISTRIBUTION AND EXCRETION OF ⁵⁹Fe-FERRITIN (%) TOTAL EXCRETION” value turned out to be 28.1±1.3%. The “ORGAN DISTRIBUTION AND EXCRETION OF ⁵⁹Fe-FERRITIN (%) URINE” value in data set [5] (setting [10]) was found to be 0.5±0%. Further, the “greater oral chelating efficiency than an identical dose of parenteral DF” value in data set [5] (oral 40 mg versus parenteral DF 40 mg) was “roughly 20%”. Besides, in data set [5] (setting [13]), the excretion of radioiron stood at 28% and the “reduction in hepatic ⁵⁹Fe” value is recorded as 27%.
